# Measured values reported in article PMC8886686 (Journal of Inorganic Biochemistry, 2022).
# Legend:
# [1] = target: T1, SARS-CoV-2 3CLpro (Severe acute respiratory syndrome coronavirus 2, UniProt P0DTD1); assay type: biochemical
# [2] = target: T1, SARS-CoV-2 3CLpro; assay type: binding; conditions: 50 μM metal ion
# [3] = target: SARS-CoV-2 WT-PLpro (Severe acute respiratory syndrome coronavirus 2, UniProt P0DTD1); assay: Zn2+ content determination by ICP-MS, PLpro; assay type: binding
# [4] = target: T2, SARS-CoV-2 PLpro (Severe acute respiratory syndrome coronavirus 2, UniProt P0DTD1); assay type: biochemical; conditions: 1 μM PLpro
# [5] = target: T2, SARS-CoV-2 PLpro; assay type: binding
# [6] = target: T2, SARS-CoV-2 PLpro; assay: PLpro deubiquitination assay with ubiquitin-AMC substrate; assay type: biochemical
# [7] = target: T1, SARS-CoV-2 3CLpro; assay type: binding
# [8] = target: T2, SARS-CoV-2 PLpro; assay type: binding; conditions: 50 μM metal ion
# [9] = target: SARS-CoV-2 WT-3CLpro (Severe acute respiratory syndrome coronavirus 2, UniProt P0DTD1); assay: Zn2+ content determination by ICP-MS, 3CLpro; assay type: binding
smiles,measurement,setting,value
"O=C([O-])[C@H](O)[C@@H](O)[C@H](O)[C@H](O)CO.O=C([O-])[C@H](O)[C@@H](O)[C@H](O)[C@H](O)CO.[Zn+2] [Zn^2+, zinc gluconate]",inhibition of the proteolytic activity of 3CLpro,"[1]; 50 μM metal ion, 0.5 μM 3CLpro",97.6%
same,IC50,"[1]; read-out: IC50, 3CLpro activity, 0.5 μM WT-3CLpro, 10 μM substrate",540 ± 40 nM
same,effect on melting temperature of 3CLpro,[2],most potent metal ion to decrease the melting temperatures
same,Zn2+ binding capacity per PLpro monomer (ICP-MS),[3],1.90 ± 0.01 eq.
same,inhibition of the proteolytic activity of PLpro,[4]; 50 μM metal ion,98%
same,IC50,"[4]; read-out: IC50, PLpro activity, 20 μM peptide substrate",530 ± 40 nM
same,Zn2+ bound to PLpro (ITC stoichiometry),[5],1.23 ± 0.01 eq.
same,Kd,"[5]; read-out: dissociation constant (KD), PLpro",2170 ± 360 nM
same,inhibition of PLpro deubiquitination activity,[6],95.7%
same,Zn2+ bound to 3CLpro monomer (ITC stoichiometry),[7],0.79 ± 0.01 eq.
same,Kd,"[7]; read-out: dissociation constant (KD), 3CLpro (monomer)",4080 ± 660 nM
same,effect on melting temperature of PLpro,[8],most potent metal ion to decrease the melting temperatures
same,Zn2+ binding capacity of 3CLpro monomer (ICP-MS),[9],1.24 ± 0.01 eq.
